Laboratory results taken from the NIST ThermoML archive (doi:10.1021/acs.jced.5b00094).
± gives the expanded uncertainty stated by the source. Values belong to the molecule of their own block, whether it stands above or below them.

Assay: wn = mass fraction of the nth substance listed
Conditions: 348 K, 101 kPa, Liquid, Pycnometric method

- mass density (w1 = 0.332): 1204 ± 1.6 kg/m3
SMILES: [Cl-].[K+] [potassium chloride] + O

- mass density (w1 = 0.4775): 1620.5 ± 21 kg/m3
SMILES: [Cl-].[Cl-].[Sr+2] [strontium chloride] + O

- mass density (w1 = 0.2745): 1183 ± 1.4 kg/m3
SMILES: [Cl-].[Na+] [sodium chloride] + O
